Laboratory results published in the NIST ThermoML archive (doi:10.1016/j.jct.2015.11.025).
± gives the expanded uncertainty stated by the source.

How the values were obtained:
[1] = Crystal
[2] = Molar enthalpy of transition or fusion; conditions: Crystal; DSC

- mass density ([1]; 298.15 K, 101.33 kPa, flotation method): 1297 ± 2 kg/m3
- Normal melting temperature ([1]; DTA): 136.90 ± 1.1 °C
- Molar enthalpy of transition or fusion [2]: 9.77 ± 0.263 kcal/mol
Structure (SMILES): CCOC(=O)Cc1c(C(=O)OCC)sc(N)c1C#N
